Laboratory results as given in patent publication US6284910A, “Farnesyl pyrophosphate analogs” (University of Kentucky Research Foundation, priority 1999, dated 2001).
“Also recorded” adds a separate entry of the source.

How the values were obtained:
[1] = target: T1, squalene synthase (Bos taurus, UniProt Q32KR6); assay: Conversion of [^3 H]AGPP to organic soluble products by squalene synthase; type: biochemical, bovine; details: in vitro; listed as [^3 H]AGPP
T1 construct: squalene synthase activity present in bovine brain microsome fractions; from tissue; host or cells: bovine brain microsomes (crude)
T1 sequence (Q32KR6 1-417): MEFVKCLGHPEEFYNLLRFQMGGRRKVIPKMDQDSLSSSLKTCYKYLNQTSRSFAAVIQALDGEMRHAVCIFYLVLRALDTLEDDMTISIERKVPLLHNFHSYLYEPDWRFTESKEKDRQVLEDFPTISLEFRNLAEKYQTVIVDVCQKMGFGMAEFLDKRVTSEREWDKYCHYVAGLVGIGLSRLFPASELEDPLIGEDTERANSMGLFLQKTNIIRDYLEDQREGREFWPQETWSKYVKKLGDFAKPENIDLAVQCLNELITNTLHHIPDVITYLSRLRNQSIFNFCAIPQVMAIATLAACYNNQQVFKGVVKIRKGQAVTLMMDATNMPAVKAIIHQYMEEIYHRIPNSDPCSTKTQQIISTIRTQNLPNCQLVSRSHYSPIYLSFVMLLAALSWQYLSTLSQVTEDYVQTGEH
Description: Assay for Squalene Synthase Activity--Initial rates of squalene synthase activity present in bovine brain microsome fractions were assayed as previously described (19) with minor modifications. […] […] Assay mixtures were incubated for 30 min at 37° C., and the reactions terminated by the addition of 50 μl of 40% (wt/vol) KOH and then 100 μl of 95% ethanol. The resulting mixtures were incubated at 60° C. for 2 h and then cooled to room temperature. Authentic carrier squalene (20 μg) was added to each reaction tube, which were then extracted three times with petroleum ether. The lipid extracts were pooled, washed with water three times, and evaporated under a stream of N2. The lipid residue was redissolved in 100 μl CHCl3 /CH3 OH (2:1 vol/vol) and an aliquot (30 μl) was taken to determine the amount of labeled lipid formed by scintillation spectrometry. The remaining sample was analyzed on Silica gel G 60 TLC plates by developing with hexane (33). In all analyses the squalene standard was located by anisaldehyde spray reagent (34), and radioactive zones were located with a Bioscan Imaging System 200-IBM.
Some of the previously characterized FTase inhibitors, particularly those competitive for FPP binding, have been described as inhibitors of squalene synthase, an enzyme that utilizes FPP and is an important secondary regulatory protein in the cholesterol biosynthetic pathway (38).

[2] = tested on: Xenopus laevis oocytes; assay: Xenopus laevis oocyte maturation assay (GVBD) with oncogenic H-Ras in mevinolin-treated oocytes; type: cell-based
Excerpt: Recently, a novel methodology involving the microinjection of known amounts of Ras into Xenopus oocytes has been described (see references 24, 45, infra), thereby permitting a quantitative structure-function analysis of H-Ras farnesyl-group for signal transduction in vivo. The approach makes use of enzymatic methods to attach structurally related farnesyl analogs onto the prenylation site of H-Ras combined with microinjection procedures to study their in vivo function. Oocytes are naturally arrested at the G2-M boundary of the first meiotic cell division. (See reference 80, infra). When microinjected with oncogenic H-Ras, oocytes reenter the cell cycle, which is monitored by germinal vesicle breakdown (GVBD) by the appearance of a white spot in the animal hemisphere. GVBD is accompanied by activation of the mitogen-activated protein kinase (MAPK) cascade. (See 81, 82, infra). […] (See references 24, 45, infra). These biochemical effects are strictly dependent on in vivo farnesylation of the injected H-Ras protein since mutation of the CaaX prenylation motif, blocking isoprenoid biosynthesis, and inhibition of FTase in oocytes all suppress these activities. (See references 83-85, infra). Thus, the system provides a method to study the in vivo role of prenylation by analyzing the ability of FPP analogues to rescue H-Ras biological functions in isoprenoid-depleted oocytes. […] Oocytes were isolated from X. laevis females and allowed to recover overnight. (See 24, 45, infra).

[3] = target: T2, recombinant GGTase I (Rattus norvegicus, UniProt P53610+Q04631); assay: Inhibition of CAAX GGTase I transfer of [^3 H]geranylgeranyl from [^3 H]GGPP to H-Ras-CVLL; type: biochemical
T2 construct: 6xHis (N); made in house; host or cells: Sf9 insect cells (baculovirus)
Description: The assay mixtures contained (in a final volume of 25 μl) various components as described in "Experimental Procedures". After incubation for 15 min at 37° C., the amount of [^3 H]prenyl group transferred to the appropriate protein substrate [H-Ras (CVLS) for FTase and H-Ras (CVLL) for CAAX GGTase] was measured by precipitation with ethanol-HCl. The assays contained 10 ng recombinant rat FTase, 5 μM H-Ras, and 0.6 μM [^3 H]FPP (33,000 dpm/pmol) or 100 ng recombinant rat CAAX GGTase, 5 μM H-Ras CVLL, and 1 μM [^3 H]GGPP (33,000 dpm/pmol) and the indicated concentration of unlabeled AGPP. […] Each value is the average of duplicate incubations and is representative of two separate experiments.
Unless otherwise stated, each reaction contained the following components in a final volume of 25 μl: 50 mM Tris-HCl (pH 7.4), 5 mM dithiothreitol, 20 μM Zwittergent (3-14), 1 μM [^3 H]GGPP (33,000 dpm/pmol; American Radiochemical Co.), 5 μM p21^H-ras CVLL, 5 μM ZnCl2, 5 mM MgCl2, 100 ng recombinant CAAX GGTase-1, and the indicated amount of unlabeled AGPP. Following incubation at 37° C. for 15 min, the amount of [^3 H]geranylgeranyl transferred was measured by ethanol-HCl precipitation followed by filtration on glass fiber filters. A blank value was determined in parallel incubation mixtures containing no enzyme and was subtracted from each reaction.
The assays contained 10 ng recombinant rat FTase, 5 μM H-Ras, and 0.6 μM [^3 H]FPP (33,000 dpm/pmol) or 100 ng recombinant rat CAAX GGTase, 5 μM H-Ras CVLL, and 1 μM [^3 H]GGPP (33,000 dpm/pmol) and the indicated concentration of unlabeled AGPP.

[4] = tested on: GGTase I; assay: Transfer of [^3 H]AGPP by GGTase I to H-Ras-CVLL; type: biochemical
[5] = target: FTase (Rattus norvegicus, UniProt Q02293+Q04631); assay: Inhibition of FTase-catalyzed transfer of [^3 H]AGPP to p21^H-ras; type: biochemical; parameters: H-Ras is only the protein substrate; details: non-radiolabeled compound, time and concentration dependent transfer
Description: Assay for Farnesyltransferase Activity--Farnesyltransferase activity was assayed by measuring the amount of [^3 H]farnesyl or [^3 H]anilinogeranyl transferred from [^3 H]FPP or [^3 H]AGPP to recombinant p21^H-ras, as described previously (31). Unless otherwise stated, each reaction mixture contained the following components in a final volume of 25 μl: 50 mM Tris (pH 7.4), 20 mM KCl, 0.2% octyl β-glucopyranoside, 1 mM dithiothreitol, 10-20 ng recombinant FTase, 5 μM p21^Ha-ras, 3 mM MgCl2, 50 μM ZnCl2, and 0.6 μM [^3 H]FPP (33,000 dpm/pmol; American Radiochemical Co.) or 0.1-5 μM [^3 H]AGPP (37,400 dpm/pmol). Following incubation for the indicated times at 37° C., the amount of [^3 H]prenyl transferred was measured by ethanol-HCl precipitation and filtration on glass fiber filters with modification as previously described (19). A blank value was determined in parallel incubation mixtures containing no enzyme. This blank value was subtracted from each reaction before calculating pmol [^3 H]prenyl transferred.
The observed inhibition kinetics could be a manifestation of the ability of AGPP to act as an alternative substrate for FTase. To evaluate the potential of AGPP to serve as a substrate of FTase, [^3 H]-AGPP was prepared by a similar route as described above, incorporating tritium with a specific activity of 17 Ci/mmol (synthesis to be reported elsewhere). […] The incorporated radioactivity was detected as a band of the expected molecular weight of farnesylated p21^H-ras on SDS-polyacrylamide gels (FIG. 4A, inset). […] The concentration of [^3 H]AGPP that gave half-maximal reaction velocity was approximately 0.5 μM (FIG. 4B).

C/C(=C\COP(=O)(O)OP(=O)(O)O)CC/C=C(\C)CNc1ccccc1 [AGPP, (E,E)-8-Aniline-3,7-dimethyl-2,6-octadiene pyrophosphate]
conversion to organic soluble products [1]: showed no activity; also recorded: failed to detect any conversion
additional time necessary to achieve 50% maturation versus FPP ([2]; H-Ras and AGPP, mevinolin-treated oocytes, longer than for FPP): 2 to 4 h
rescue of oncogenic H-Ras biological activity (oocyte maturation) ([2]; co-microinjected with oncogenic H-Ras, 50 μM mevinolin-treated oocytes): rescues the biological activity of oncogenic H-Ras in isoprenoid depleted oocytes with delayed maturation kinetics relative to FPP; also recorded: rescues the ability of H-Ras to induce oocyte maturation in mevinolin-treated cells
effect when given without H-Ras ([2]; compound alone): neither FPP nor AGPP alone displayed any biological effect
IC50 ([3]; 1 μM [^3 H]GGPP, 5 μM H-Ras CVLL, 37° C., 15 min): 31 µM
GGTase I activity remaining ([3]; AGPP concentrations of greater than 100 μM, 15 min): approximately 20%
selectivity: better inhibitor of FTase than GGTase I ([3]; FTase vs GGTase I): 50 fold
transfer by GGTase I, in words [4]: transferred by GGTase I to H-Ras-CVLL with a low efficiency
inhibition of transfer of [^3 H]AGPP to p21^H-ras, in words [5]: found to inhibit
